# Patent publication US20080139573A1, “Treatment of resistant Schizophrenia and other CNS disorders” (Copharm, priority 2006, published 2008)
# “Also recorded” adds a separate entry of the source.
# What was measured:
# Type in all cases: in vivo, human
# [1] = system: therapy resistant depression patient; test: Case report: therapy resistant depression, switched to oral zuclopenthixol; conditions: for response to previous antidepressants: appropriate doses, sufficient duration
# Source text: Resistant depression patient is defined as a patient not responding to an appropriate pharmacological treatment.
# Subject one diagnosed with chronic depression for the first time. […] They were then switched to oral zuclopenthixol. Before initiating oral zuclopenthixol treatment, the patient was considered as “markedly ill”.
# [2] = system: recurrent depression patient; test: Case report: recurrent depression, switched to oral zuclopenthixol; conditions: for outcome under previous antidepressants: appropriate doses, sufficient duration, compliance ascertained
# Source text: Recurrent depressive patient is defined as a patient experiencing two or more successive major depressive episodes that are separated by at least two months of not experiencing adequate symptoms of depression to qualify for major depressive disorder (DSM-IV).
# Subject diagnosed with recurrent depression for the first time. […] Compliance with treatment was ascertained. […] After 2 years, the patient had still not relapsed.
# [3] = system: therapy refractory schizophrenic patient; test: Case report: therapy refractory schizophrenia, switched to oral zuclopenthixol
# Source text: Subject two diagnosed with therapy refractory schizophrenia for the first time The patient had been treated with appropriate doses and for sufficient duration with oral aripiprazole, oral loxapine and oral olanzapine at appropriate doses and for sufficient duration. Compliance with treatment was ascertained. […] The patient was then switched to oral zuclopenthixol.
# [4] = system: therapy resistant schizophrenic patient; test: Case reports: therapy resistant schizophrenic patients switched to oral zuclopenthixol; conditions: for response to previous antipsychotic agents: Case 1, oral, successive, appropriate doses and sufficient duration, compliance controlled
# Source text: Therapy resistant schizophrenic patient is a schizophrenic patient who has tried two successive antipsychotic agents for a period of 6 weeks at an appropriate dosage with no significant symptomatic relief of symptoms and who was compliant to pharmacological treatment. This definition comprises determining relief of symptoms by measurement on a clinical scale such as PANSS (positive and negative […] scale). The relief should correspond to a reduction of the PANSS scale of at least 20% after a period of 6 weeks treatment of an appropriate dosage. Lack of relief of symptoms should be assessed prospectively and should not be documented on the basis of historical information. Compliance to treatment should be documented through a third party such as nurse or care giver. Lack of compliance is often a reason for unsatisfactory outcome of schizophrenia therapy; if compliance is not documented the diagnosis of therapy resistant schizophrenia cannot be ascertained. Appropriate dosage is defined as an equivalent chlorpromazine of 400-700 mg per day.
# Case 1. […] Compliance to treatment was ascertained. Before being given zuclopenthixol, the patient presented severe debilitating schizophrenic symptoms.
# Case 2. Subject diagnosed with therapy resistant schizophrenia for the first time. […] Compliance with treatment was ascertained. The patient was then switched to oral zuclopenthixol. Before initiating zuclopenthixol treatment, the patient was considered as “markedly ill”.
# Case 3. Subject diagnosed with therapy resistant schizophrenia for the first time. […] Compliance with treatment was ascertained. The patient was then switched to oral zuclopenthixol. Before initiating zuclopenthixol treatment, the patient was considered as “among the most extremely ill patients”. After 8 weeks of treatment with zuclopenthixol, the patient was evaluated as having “much improved”, as confirmed by C.G.I. and P.A.N.S.S.
# Case 4. Subject diagnosed with therapy resistant schizophrenia for the first time. The patient had been treated with appropriate doses and for sufficient duration with the following antipsychotics: oral risperidone, oral aripiprazole, oral loxapine, and oral olanzapine. Compliance with treatment was ascertained. The patient was then switched to oral zuclopenthixol. Before initiating zuclopenthixol treatment, the patient was considered as “severely ill”. After 8 weeks of treatment with zuclopenthixol, the patient was evaluated as having “much improved”, as confirmed by C.G.I. and P.A.N.S.S.
# Case 5. Subject diagnosed with therapy resistant schizophrenia for the first time. […] The patient was then switched to oral zuclopenthixol. […] After 8 weeks of treatment with zuclopenthixol, the patient was evaluated as having “much improved”, as confirmed by C.G.I. and P.A.N.S.S.
# [5] = system: therapy resistant bipolar disorder patient; test: Case reports: therapy resistant bipolar disorder, prescribed oral zuclopenthixol; conditions: for response to previous treatments: appropriate doses, sufficient duration, compliance ascertained
# Source text: Resistant bipolar disorder patient is defined as a patient not responding to an appropriate pharmacological treatment.
# Case 1. Subject diagnosed with therapy resistant bipolar disorder I presented as having manic state. They had been diagnosed for the first time. […] Compliance with treatment was ascertained. They were then prescribed oral zuclopenthixol. Before initiating oral zuclopenthixol treatment, the patient was considered as “among the most extremely ill patients”. After 8 weeks of treatment with zuclopenthixol, the patient was evaluated as having “much improved”.
# Case 2. Subject diagnosed with therapy resistant bipolar disorder 11 presented with depressive symptoms. They had been diagnosed for the first time. […] Compliance with treatment was ascertained. They were then prescribed oral zuclopenthixol. Before initiating oral zuclopenthixol treatment, the patient was considered as “markedly ill”.
# [6] = system: naïve schizophrenic patient; test: Case report: naïve schizophrenic patient given zuclopenthixol as first antipsychotic; conditions: 50 mg p. o. per day
# Source text: Naïve schizophrenic patient is a schizophrenic patient who had never been treated with an antipsychotic agent.
# After a period of 5 years of treatment, the patient had still not relapsed.
# [7] = person one, after 8 weeks of treatment
# [8] = person two, after 8 weeks of treatment
smiles,measurement,setting,value
CN(C)CCC=C1c2ccccc2CCc2ccccc21 [amytriptiline],response to previous antidepressants,[1],without satisfactory response
same,outcome under previous antidepressants,[2],regularly experiencing new episodes of depression
O=C1CCc2ccc(OCCCCN3CCN(c4cccc(Cl)c4Cl)CC3)cc2N1 [aripiprazole],response to previous antipsychotics,"[3]; appropriate doses, sufficient duration, significant troublesome residual symptoms remained",significant relief of symptoms
CNCCC(Oc1ccc(C(F)(F)F)cc1)c1ccccc1 (stereo not shown) [fluoxetine],outcome under previous antidepressants,[2],regularly experiencing new episodes of depression
O=C(CCCN1CCC(O)(c2ccc(Cl)cc2)CC1)c1ccc(F)cc1 [haloperidol],response to previous antipsychotic agents,[4],did not respond
Nc1nnc(-c2cccc(Cl)c2Cl)c(N)n1 [lamotrigine],response to previous treatments,[5],without satisfactory response
Fc1ccc([C@@H]2CCNC[C@H]2COc2ccc3c(c2)OCO3)cc1 [paroxetine],response to previous antidepressants,[1],without satisfactory response
same,outcome under previous antidepressants,[2],regularly experiencing new episodes of depression
Cc1nc2n(c(=O)c1CCN1CCC(c3noc4cc(F)ccc34)CC1)CCCC2 [risperidone],response to previous antipsychotic agents,[4],did not respond
CN[C@H]1CC[C@@H](c2ccc(Cl)c(Cl)c2)c2ccccc21 [sertraline],response to previous treatments,[5],without satisfactory response
same,response to previous antidepressants,[1],without satisfactory response
"Cl.Cl.OCCN1CCN(CC/C=C2/c3ccccc3Sc3ccc(Cl)cc32)CC1 [zuclopenthixol, 4-[(3Z)-3-(2-chloro-9H-thioxanthen-9-ylidene)propyl]-1-piperazineethanol dihydrochloride]",outcome of first antipsychotic treatment,[6],successful
same,period of treatment without relapse,[6],≥ 5 years
same,effect on schizophrenic symptoms,"[4]; Case 1, patient, exclusively oral zuclopenthixol, soon after start of treatment",major relief of schizophrenic symptoms
same,"evaluation of improvement, confirmed by C.G.I. and P.A.N.S.S.","[4]; Cases 2-5, oral, after 8 weeks of treatment, dihydrochloride",very much improved; also recorded: much improved
same,evaluation of improvement,"[5]; after 8 weeks of treatment, Case 1 bipolar I manic state, Case 2 depressive symptoms, dihydrochloride",much improved; also recorded: very much improved
same,"evaluation of improvement, confirmed by C.G.I.",[1]; [7],much improved
same,reduction of depression on the Hamilton Depression Scale,[1]; [7],marked response
same,period without relapse,[2]; person,≥ 2 years
same,response to treatment,[2]; person,marked response
same,"evaluation of improvement, confirmed by C.G.I. and P.A.N.S.S.",[3]; [8],much improved
same,remission,[3]; [8],achieve remission
